The supplement of paper PMC11061612

Tests used:
[1] = test system: 8305C (Thyroid Gland Carcinoma); assay: Bliss excess, mean over the matrix (fraction); higher = more synergy
Outline: (§1)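 After 24 hours at 37°C and 5% CO2 in 1536-well plates, cells in DMEM/F12 or RPMI plus 10% FBS received two-drug dose matrices for 72 hours. Viability came from CellTiter-Glo 2.0 luminescence and was scaled as inhibition, anchored at 0 by vehicle wells and at 1 by blank wells. Combination Emax is taken as the second-highest inhibition in the matrix, and Bliss excess as the observed combination effect less EA + EB − EA·EB, with EA and EB the single-agent effects.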

[2] = test system: HDLM-2 (Hodgkin's Lymphoma); assay: as above
Outline: as §1

HMV-II (Melanoma) = assay: as above
Outline: as §1

[3] = test system: MDA-MB-468 (Breast Carcinoma); assay: as above
Outline: as §1

Mewo (Melanoma) = assay: as above
Outline: as §1

NCI-H2795 (Mesothelioma) = assay: as above
Outline: as §1

[4] = test system: PCI-30 (Head and Neck Carcinoma); assay: as above
Outline: as §1

[5] = test system: RKO (Colorectal Carcinoma); assay: as above
Outline: as §1

SH-4 (Melanoma) = assay: as above
Outline: as §1

[6] = test system: SW1116 (Colorectal Carcinoma); assay: as above
Outline: as §1

[7] = test system: 8305C (Thyroid Gland Carcinoma); assay: combination Emax (second highest fraction inhibited in the dose matrix, 72 h); higher = more inhibition; extreme values may be limits of the assay
Outline: as §1

[8] = test system: Hs-633T (Other Solid Carcinomas); assay: as above
Outline: as §1

NCI-H28 (Mesothelioma) = assay: as above
Outline: as §1

[9] = test system: OC-314 (Ovarian Carcinoma); assay: as above
Outline: as §1

[10] = test system: RKO (Colorectal Carcinoma); assay: as above
Outline: as §1

[11] = test system: RPMI-6666 (Non-Cancerous); assay: as above
Outline: as §1

[12] = test system: RT-112 (Bladder Carcinoma); assay: as above
Outline: as §1

[13] = test system: SK-OV-3 (Ovarian Carcinoma); assay: as above
Outline: as §1

[14] = test system: SUP-T1 (T-Lymphoblastic Leukemia); assay: as above
Outline: as §1

[15] = test system: SW1271 (Small Cell Lung Carcinoma); assay: as above
Outline: as §1
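For Bliss excess, mean over the matrix in this document: after 72 h of two-drug dosing.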

SMILES | Bliss excess [1] | Bliss excess [2] | Bliss excess (HMV-II (Melanoma)) | Bliss excess [3] | Bliss excess (Mewo (Melanoma)) | Bliss excess (NCI-H2795 (Mesothelioma)) | Bliss excess [4] | Bliss excess [5] | Bliss excess (SH-4 (Melanoma)) | Bliss excess [6] | combination Emax [7] | combination Emax [8] | combination Emax (NCI-H28 (Mesothelioma)) | combination Emax [9] | combination Emax [10] | combination Emax [11] | combination Emax [12] | combination Emax [13] | combination Emax [14] | combination Emax [15]
O=C(c1cc(Cc2n[nH]c(=O)c3ccccc23)ccc1F)N1CCN(C(=O)C2CC2)CC1 [Olaparib] + CC1(C)CCC(CN2CCN(c3ccc(C(=O)NS(=O)(=O)c4ccc(NCC5CCOCC5)c([N+](=O)[O-])c4)c(Oc4cnc5[nH]ccc5c4)c3)CC2)=C(c2ccc(Cl)cc2)C1 [Venetoclax] (first compound max 10 µM, 7x7, partner max 1 µM) | -0.0213 | 0.0921 | -0.0468 | -0.0372 | -0.0766 | -0.0329 | -0.0425 | -0.0151 | -0.0355 | -0.0429 | 0.232 | 0.186 | 0.118 | 0.188 | 0.191 | 0.72 | 0.0956 | 0.139 | 0.479 | 0.201
C[C@@H](Nc1cc(F)cc(F)c1)c1cc(C(=O)N(C)C)cc2c(=O)cc(N3CCOCC3)oc12 [AZD8186] + C1CN(CCC1(C(=O)N[C@@H](CCO)C2=CC=C(C=C2)Cl)N)C3=NC=NC4=C3C=CN4 [AZD5363] (first compound max 10 µM, 7x7, partner max 10 µM) | -0.0642 | -0.0194 | -0.0515 | -0.0305 | -0.001 | -0.106 | -0.0443 | 0.0284 | -0.0317 | -0.0429 | 0.369 | 0.297 | 0.359 | 0.562 | 0.433 | 0.672 | 0.254 | 0.426 | 0.553 | 0.289
O=C(c1cc(Cc2n[nH]c(=O)c3ccccc23)ccc1F)N1CCN(C(=O)C2CC2)CC1 [Olaparib] + CN(CC[C@H](CSC1=CC=CC=C1)NC2=C(C=C(C=C2)S(=O)(=O)NC(=O)C3=CC=C(C=C3)N4CCC(CC4)[C@H](C5=CC=CC=C5C6=CC=C(C=C6)Cl)O)S(=O)(=O)C(F)(F)F)CCO [AZD4320] (first compound max 10 µM, 7x7, partner max 1 µM) | -0.0062 | -0.0141 | -0.0537 | -0.043 | -0.0615 | -0.0086 | -0.0405 | -0.0252 | -0.0505 | -0.0404 | 0.385 | 0.2 | 0.168 | 0.262 | 0.11 | 0.94 | 0.153 | 0.219 | 0.602 | 0.21
Cc1c2c(nn1C)CSCc1cc(n(C)n1)CSc1cc(c3ccccc3c1)OCCCc1c(C(=O)O)n(C)c3c-2c(Cl)ccc13 [AZD5991] + CC(=O)O[C@H]1C(=O)[C@@]2(C)[C@H]([C@H](OC(=O)c3ccccc3)[C@]3(O)C[C@H](OC(=O)[C@H](O)[C@@H](NC(=O)c4ccccc4)c4ccccc4)C(C)=C1C3(C)C)[C@]1(OC(C)=O)CO[C@@H]1C[C@@H]2O [Paclitaxel] (first compound max 1 µM, 7x7, partner max 3 µM) | -0.0118 | 0.0128 | 0.0547 | -0.051 | 0.0103 | 0.044 | 0.115 | 0.0203 | -0.0331 | -0.0379 | 0.732 | 0.95 | 0.469 | 0.995 | 1 | 0.979 | 1 | 0.54 | 0.744 | 0.472
N#Cc1cnc(Nc2cc(NC[C@H]3CNCCO3)c(C(F)(F)F)cn2)cn1 [SRA737] + CCc1c2c(nc3ccc(O)cc13)-c1cc3c(c(=O)n1C2)COC(=O)[C@]3(O)CC [SN-38] (first compound max 10 µM, 7x7, partner max 0.3 µM) | -0.0419 | -0.0382 | -0.0523 | -0.0136 | 0.022 | -0.0977 | -0.0079 | -0.0398 | -0.111 | 0.0312 | 0.615 | 0.831 | 0.516 | 0.994 | 0.925 | 0.915 | 0.95 | 0.542 | 0.796 | 0.608
N#Cc1cnc(Nc2cc(NC[C@H]3CNCCO3)c(C(F)(F)F)cn2)cn1 [SRA737] + C=CCn1c(=O)c2cnc(Nc3ccc(N4CCN(C)CC4)cc3)nc2n1-c1cccc(C(C)(C)O)n1 [AZD1775] (first compound max 10 µM, partner max 1 µM) | 0.0356 | -0.0363 | 0.0015 | 0.0705 | -0.0149 | 0.0401 | 0.116 | 0.0536 | 0.0688 | -0.0119 | 0.553 | 0.79 | 0.617 | 0.928 | 0.957 | 0.865 | 0.954 | 0.572 | 0.766 | 0.488
CN(CCO)CC[C@H](CSc1ccccc1)Nc1ccc(S(=O)(=O)NC(=O)c2ccc(N3CCC([C@@H](O)c4ccccc4-c4ccc(Cl)cc4)CC3)cc2)cc1S(=O)(=O)C(F)(F)F [AZD4320] + CS(=O)(=O)CCNCc1ccc(-c2ccc3ncnc(Nc4ccc(OCc5cccc(F)c5)c(Cl)c4)c3c2)o1 [Lapatinib] (first compound max 1 µM, 7x7, partner max 10 µM) | -0.0526 | -0.0018 | -0.0663 | -0.0457 | -0.0386 | 0.0148 | 0.0067 | 0.0405 | -0.0411 | 0.0117 | 0.677 | 0.452 | 0.826 | 0.729 | 0.477 | 0.951 | 0.351 | 0.869 | 0.866 | 0.484
CC1(C)CCC(CN2CCN(c3ccc(C(=O)NS(=O)(=O)c4ccc(NCC5CCOCC5)c([N+](=O)[O-])c4)c(Oc4cnc5[nH]ccc5c4)c3)CC2)=C(c2ccc(Cl)cc2)C1 [Venetoclax] + CS(=O)(=O)CCNCc1ccc(-c2ccc3ncnc(Nc4ccc(OCc5cccc(F)c5)c(Cl)c4)c3c2)o1 [Lapatinib] (first compound max 1 µM, 7x7, partner max 10 µM) | -0.0112 | 0.0315 | -0.045 | -0.141 | -0.0949 | -0.058 | -0.0457 | -0.0366 | -0.0489 | -0.0129 | 0.356 | 0.213 | 0.362 | 0.399 | 0.325 | 0.55 | 0.146 | 0.345 | 0.484 | 0.373
Cc1cc2ncnn2cc1Nc1ncc2c(n1)n(C1CCOCC1)c(=O)n2C [AZD7648] + COc1cc([C@@H]2c3cc4c(cc3[C@@H](O[C@@H]3O[C@@H]5CO[C@@H](C)O[C@H]5[C@H](O)[C@H]3O)[C@H]3COC(=O)[C@H]23)OCO4)cc(OC)c1O [Etoposide] (first compound max 10 µM, 7x7, partner max 10 µM) | -0.0413 | -0.0015 | 0.0864 | 0.0376 | 0.0524 | -0.0093 | 0.0768 | 0.135 | 0.0744 | -0.0028 | 0.465 | 0.842 | 0.425 | 0.978 | 0.829 | 0.958 | 0.798 | 0.399 | 0.85 | 0.475
O=C(c1cc(Cc2n[nH]c(=O)c3ccccc23)ccc1F)N1CCN(C(=O)C2CC2)CC1 [Olaparib] + COc1nnc2ccc(N3CCC(c4ccc(OCCN5CCN(C)C(=O)[C@H]5C)cc4)CC3)nn12 [AZD5153] (first compound max 10 µM, 7x7, partner max 1 µM) | -0.0634 | -0.0334 | -0.046 | -0.0737 | -0.074 | -0.085 | -0.0144 | -0.0893 | -0.11 | -0.0745 | 0.495 | 0.612 | 0.422 | 0.798 | 0.672 | 0.633 | 0.157 | 0.516 | 0.792 | 0.573
Cc1c2c(nn1C)CSCc1cc(n(C)n1)CSc1cc(c3ccccc3c1)OCCCc1c(C(=O)O)n(C)c3c-2c(Cl)ccc13 [AZD5991] + Nc1ccn([C@@H]2O[C@H](CO)[C@@H](O)C2(F)F)c(=O)n1 [Gemcitabine] (first compound max 1 µM, 7x7, partner max 0.3 µM) | -0.121 | 0.0014 | 0.0013 | -0.0097 | -0.0395 | -0.0687 | -0.0531 | -0.0368 | -0.0246 | -0.0213 | 0.374 | 0.837 | 0.684 | 0.917 | 0.936 | 0.947 | 0.834 | 0.341 | 0.77 | 0.604
Cc1c2c(nn1C)CSCc1cc(n(C)n1)CSc1cc(c3ccccc3c1)OCCCc1c(C(=O)O)n(C)c3c-2c(Cl)ccc13 [AZD5991] + CS(=O)(=O)CCNCc1ccc(-c2ccc3ncnc(Nc4ccc(OCc5cccc(F)c5)c(Cl)c4)c3c2)o1 [Lapatinib] (first compound max 1 µM, 7x7, partner max 10 µM) | -0.042 | 0.0262 | -0.0587 | -0.0357 | -0.013 | -0.016 | 0.0446 | 0.0196 | -0.01 | -0.0369 | 0.346 | 0.206 | 0.337 | 0.506 | 0.455 | 0.555 | 0.827 | 0.347 | 0.488 | 0.424
